The values below are quoted from earlier work in US20220378857A1, “COMPOSITION FOR THE CARDIOVASCULAR RISK REDUCTION” (NEILOS S.R.L., priority 2019, published 2022).

The structures appear in SMILES notation. Like-named read-outs stand apart in the source and are kept apart here.

The mark [1] stands for this setting: 7.5 mg/die of active principle for 12 weeks.
Where [2] appears, read: 11.4 mg/die of monacolin for 8 weeks.

Regarding `CC[C@H](C)C(=O)O[C@H]1C[C@@H](C)C=C2C=C[C@H](C)[C@H](CC[C@@H]3C[C@@H](O)CC(=O)O3)[C@H]21` [monacolin, monacolin k], under setting [1], the “reduction in the levels of LDL cholesterol” value is 22% and the “reduction in the levels of total cholesterol” value is reported as 16%. In addition, under setting [2], the “reduction in the levels of LDL cholesterol” value is listed as 26% and the “reduction in the levels of total cholesterol” value is listed as 20%.
